Measured values: patent publication US20240025919A1, “AZA-TETRACYCLIC OXAZEPINE COMPOUNDS AND USES THEREOF” (Genentech, Inc., priority 2022, published 2024)

What was measured:
KRAS G12D = KRAS G12D (Homo sapiens (Human), UniProt P01116, G12D); assay: KRAS G12D LoEnz Biochemical Assay, BODIPY-GDP Exchange TR-FRET (SOS1-mediated nucleotide exchange); settings: read-out: KRas (G12D) GDP HTRF IC50
KRAS WT = KRAS WT (Homo sapiens (Human), UniProt P01116); assay: KRAS WT Biochemical Assay, BODIPY-GDP Exchange TR-FRET (Example 502; 0.06 nM KRAS WT, 15 nM GDP, 300 nM SOS1, 120-minute incubation); settings: read-out: KRas HTRF IC50
Sequence of KRAS WT (P01116-2 other isoform, or with tags, fused parts or gaps): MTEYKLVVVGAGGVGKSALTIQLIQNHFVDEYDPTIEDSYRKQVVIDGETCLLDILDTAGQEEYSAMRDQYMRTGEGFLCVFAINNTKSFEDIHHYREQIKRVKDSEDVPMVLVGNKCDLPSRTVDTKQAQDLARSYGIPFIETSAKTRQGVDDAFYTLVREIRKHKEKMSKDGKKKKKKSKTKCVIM
How it was run: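 Biotin-tagged recombinant KRAS WT (0.06 nM) preloaded with 15 nM GDP and Tb-streptavidin, 10 min RT, then exchange started with 300 nM SOS1 plus 300 nM BODIPY-GDP in HEPES pH 7.5 buffer with MgCl2. TR-FRET 520/490 ratio read after 120 min; normalized to DMSO and full-inhibition control; IC50 from 4-parameter fit.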

Sequence of KRAS G12D (P01116-2 other isoform, or with tags, fused parts or gaps G12D): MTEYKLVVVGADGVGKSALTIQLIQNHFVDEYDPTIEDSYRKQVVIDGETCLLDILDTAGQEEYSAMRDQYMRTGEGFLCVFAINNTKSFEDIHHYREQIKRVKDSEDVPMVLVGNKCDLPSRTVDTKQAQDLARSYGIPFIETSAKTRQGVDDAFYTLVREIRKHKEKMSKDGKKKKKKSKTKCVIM

Structure (SMILES) | IC50 (KRAS G12D) [nM] | IC50 (KRAS WT) [nM]
C[C@@H]1Oc2nc(-c3cccc4ccc(N)nc34)c(F)c3nc(OC[C@@]45CCCN4C[C@H](F)C5)nc(c23)N2C[C@H]3CC[C@H](N3)[C@@H]12 [Compound 114, 8-((5S,5aS,6S,9R)-1-Fluoro-12-(((2R,7aS)-2-fluorotetrahydro-1H-pyrrolizin-7a(5H)-yl)methoxy)-5-methyl-5a,6,7,8,9,10-hexahydro-5H-4-oxa-3,10a,11,13,14-pentaaza-6,9-methanonaphtho[1,8-ab]heptalen-2-yl)quinolin-2-amine] | 135 | 36700
C[C@@H]1Oc2nc(-c3cc(N)cc(C(F)(F)F)c3C(F)(F)F)c(F)c3nc(OC[C@@]45CCCN4C[C@H](F)C5)nc(c23)N2C[C@H]3CC[C@H](N3)[C@@H]12 [Compound 115, 3-((5S,5aS,6S,9R)-1-fluoro-12-(((2R,7aS)-2-fluorotetrahydro-1H-pyrrolizin-7a(5H)-yl)methoxy)-5-methyl-5a,6,7,8,9,10-hexahydro-5H-4-oxa-3,10a,11,13,14-pentaaza-6,9-methanonaphtho[1,8-ab]heptalen-2-yl)-4,5-bis(trifluoromethyl)aniline] | 0.39 | 34.1
C[C@@H]1Oc2nc(-c3cccc4sc(N)nc34)c(F)c3nc(OC[C@@]45CCCN4C[C@H](F)C5)nc(c23)N2C[C@H]3CC[C@H](N3)[C@@H]12 [Compound 116, 4-((5S,5aS,6S,9R)-1-fluoro-12-(((2R,7aS)-2-fluorotetrahydro-1H-pyrrolizin-7a(5H)-yl)methoxy)-5-methyl-5a,6,7,8,9,10-hexahydro-5H-4-oxa-3,10a,11,13,14-pentaaza-6,9-methanonaphtho[1,8-ab]heptalen-2-yl)benzo[d]thiazol-2-amine] | 2.41 | 213
C[C@@H]1Oc2nc(-c3cc(N)ccc3C(C)(C)C)c(F)c3nc(OC[C@@]45CCCN4C[C@H](F)C5)nc(c23)N2C[C@H]3CC[C@H](N3)[C@@H]12 [Compound 117, 4-(tert-butyl)-3-((5S,5aS,6S,9R)-1-fluoro-12-(((2R,7aS)-2-fluorotetrahydro-1H-pyrrolizin-7a(5H)-yl)methoxy)-5-methyl-5a,6,7,8,9,10-hexahydro-5H-4-oxa-3,10a,11,13,14-pentaaza-6,9-methanonaphtho[1,8-ab]heptalen-2-yl)aniline] | 4.84 | 638
Cc1c(F)c(N)cc(-c2nc3c4c(nc(OCC5(CN6CCOCC6)CC5)nc4c2F)N2C[C@H]4CC[C@H](N4)[C@H]2[C@H](C)O3)c1C(F)(F)F [Compound 118, 2-Fluoro-5-((5S,5aS,6S,9R)-1-fluoro-5-methyl-12-((1-(morpholinomethyl)cyclopropyl)methoxy)-5a,6,7,8,9,10-hexahydro-5H-4-oxa-3,10a,11,13,14-pentaaza-6,9-methanonaphtho[1,8-ab]heptalen-2-yl)-3-methyl-4-(trifluoromethyl)aniline] | 0.09 | 1.76
Cc1c(F)c(N)cc(-c2nc3c4c(nc(OC[C@@H]5CCC6C=C(F)CCN65)nc4c2F)N2C[C@H]4CC[C@H](N4)[C@H]2[C@H](C)O3)c1C(F)(F)F (stereo partly drawn) [Compound 120, 2-fluoro-5-((5S,5aS,6S,9R)-1-fluoro-12-(((3S)-7-fluoro-1,2,3,5,6,8a-hexahydroindolizin-3-yl)methoxy)-5-methyl-5a,6,7,8,9,10-hexahydro-5H-4-oxa-3,10a,11,13,14-pentaaza-6,9-methanonaphtho[1,8-ab]heptalen-2-yl)-3-methyl-4-(trifluoromethyl)aniline] | 0.24 | 44.5
Cc1c(F)c(N)cc(-c2nc3c4c(nc(OC[C@@]56CCC(C)N5C[C@H](F)C6)nc4c2F)N2C[C@H]4CC[C@H](N4)[C@H]2[C@H](C)O3)c1C(F)(F)F (stereo partly drawn) [Compound 122, 2-fluoro-5-((5S,5aS,6S,9R)-1-fluoro-12-(((2R,7aS)-2-fluoro-5-methyltetrahydro-1H-pyrrolizin-7a(5H)-yl)methoxy)-5-methyl-5a,6,7,8,9,10-hexahydro-5H-4-oxa-3,10a,11,13,14-pentaaza-6,9-methanonaphtho[1,8-ab]heptalen-2-yl)-3-methyl-4-(trifluoromethyl)aniline] | 0.11 | 3.72
Cc1c(F)c(N)cc(-c2nc3c4c(nc(OCC5CN(CC(F)F)C5)nc4c2F)N2C[C@H]4CC[C@H](N4)[C@H]2[C@H](C)O3)c1C(F)(F)F [Compound 128, 5-((5S,5aS,6S,9R)-12-((1-(2,2-Difluoroethyl)azetidin-3-yl)methoxy)-1-fluoro-5-methyl-5a,6,7,8,9,10-hexahydro-5H-4-oxa-3,10a,11,13,14-pentaaza-6,9-methanonaphtho[1,8-ab]heptalen-2-yl)-2-fluoro-3-methyl-4-(trifluoromethyl)aniline] | 0.48 | 156
Cc1c(F)c(N)cc(-c2nc3c4c(nc(OCC5(CN6CCOC[C@H]6C)CC5)nc4c2F)N2C[C@H]4CC[C@H](N4)[C@H]2[C@H](C)O3)c1C(F)(F)F [Compound 129, 2-Fluoro-5-((5S,5aS,6S,9R)-1-fluoro-5-methyl-12-((1-(((R)-3-methylmorpholino)methyl)cyclopropyl)methoxy)-5a,6,7,8,9,10-hexahydro-5H-4-oxa-3,10a,11,13,14-pentaaza-6,9-methanonaphtho[1,8-ab]heptalen-2-yl)-3-methyl-4-(trifluoromethyl)aniline] | 0.18 | 3.87
Cc1c(F)c(N)cc(-c2nc3c4c(nc(OCC56COC(CN5C)C6)nc4c2F)N2C[C@H]4CC[C@H](N4)[C@H]2[C@H](C)O3)c1C(F)(F)F [Compound 132, 2-Fluoro-5-((5S,5aS,6S,9R)-1-fluoro-5-methyl-12-((5-methyl-2-oxa-5-azabicyclo[2.2.1]heptan-4-yl)methoxy)-5a,6,7,8,9,10-hexahydro-5H-4-oxa-3,10a,11,13,14-pentaaza-6,9-methanonaphtho[1,8-ab]heptalen-2-yl)-3-methyl-4-(trifluoromethyl)aniline] | 1.47 | 291
Cc1c(F)c(N)cc(-c2nc3c4c(nc(OC[C@@H]5CO[C@H]6CC[N@]5C6)nc4c2F)N2C[C@H]4CC[C@H](N4)[C@H]2[C@H](C)O3)c1C(F)(F)F [Compound 135, 5-((5S,5aS,6S,9R)-12-(((1R,2S,5S)-4-Oxa-1-azabicyclo[3.2.1]octan-2-yl)methoxy)-1-fluoro-5-methyl-5a,6,7,8,9,10-hexahydro-5H-4-oxa-3,10a,11,13,14-pentaaza-6,9-methanonaphtho[1,8-ab]heptalen-2-yl)-2-fluoro-3-methyl-4-(trifluoromethyl)aniline] | 0.71 | 143
Cc1c(F)c(N)cc(-c2nc3c4c(nc(OC[C@@H]5[C@@H]6CCN5CCO6)nc4c2F)N2C[C@H]4CC[C@H](N4)[C@H]2[C@H](C)O3)c1C(F)(F)F [Compound 136, 5-((5S,5aS,6S,9R)-12-(((5S,8R)-4-Oxa-1-azabicyclo[3.2.1]octan-8-yl)methoxy)-1-fluoro-5-methyl-5a,6,7,8,9,10-hexahydro-5H-4-oxa-3,10a,11,13,14-pentaaza-6,9-methanonaphtho[1,8-ab]heptalen-2-yl)-2-fluoro-3-methyl-4-(trifluoromethyl)aniline] | 0.38 | 90.8
Cc1c(F)c(N)cc(-c2nc3c4c(nc(OCCCN5CCOCC5)nc4c2F)N2C[C@H]4CC[C@H](N4)[C@H]2[C@H](C)O3)c1C(F)(F)F [Compound 138, 2-Fluoro-5-((5S,5aS,6S,9R)-1-fluoro-5-methyl-12-(3-morpholinopropoxy)-5a,6,7,8,9,10-hexahydro-5H-4-oxa-3,10a,11,13,14-pentaaza-6,9-methanonaphtho[1,8-ab]heptalen-2-yl)-3-methyl-4-(trifluoromethyl)aniline] | 0.42 | 115
Cc1c(F)c(N)cc(-c2nc3c4c(nc(OCC56C[C@H](F)CN5C[C@@H](F)C6)nc4c2F)N2C[C@H]4CC[C@H](N4)[C@H]2[C@H](C)O3)c1C(F)(F)F [Compound 139, 5-((5S,5aS,6S,9R)-12-(((2S,6S)-2,6-Difluorotetrahydro-1H-pyrrolizin-7a(5H)-yl)methoxy)-1-fluoro-5-methyl-5a,6,7,8,9,10-hexahydro-5H-4-oxa-3,10a,11,13,14-pentaaza-6,9-methanonaphtho[1,8-ab]heptalen-2-yl)-2-fluoro-3-methyl-4-(trifluoromethyl)aniline] | 2.41 | 780
Cc1c(F)c(N)cc(-c2nc3c4c(nc(OCC56C[C@@H](F)CN5C[C@H](F)C6)nc4c2F)N2C[C@H]4CC[C@H](N4)[C@H]2[C@H](C)O3)c1C(F)(F)F [Compound 140, 5-((5S,5aS,6S,9R)-12-(((2R,6R)-2,6-Difluorotetrahydro-1H-pyrrolizin-7a(5H)-yl)methoxy)-1-fluoro-5-methyl-5a,6,7,8,9,10-hexahydro-5H-4-oxa-3,10a,11,13,14-pentaaza-6,9-methanonaphtho[1,8-ab]heptalen-2-yl)-2-fluoro-3-methyl-4-(trifluoromethyl)aniline] | 0.14 | 18.4
Cc1c(F)c(N)cc(-c2nc3c4c(nc(OC[C@]56C[C@H](F)CN5C[C@H](F)C6)nc4c2F)N2C[C@H]4CC[C@H](N4)[C@H]2[C@H](C)O3)c1C(F)(F)F [Compound 141, 5-((5S,5aS,6S,9R)-12-(((2R,6S,7ar)-2,6-Difluorotetrahydro-1H-pyrrolizin-7a(5H)-yl)methoxy)-1-fluoro-5-methyl-5a,6,7,8,9,10-hexahydro-5H-4-oxa-3,10a,11,13,14-pentaaza-6,9-methanonaphtho[1,8-ab]heptalen-2-yl)-2-fluoro-3-methyl-4-(trifluoromethyl)aniline] | 0.26 | 85
